Eleven compounds from patent US12653191B2, “Active compound combinations” (Bayer Aktiengesellschaft, priority 2020, dated 2026) can be followed below.

Where “and” joins values, the source holds several entries; their conditions need not be identical. Identical values can stand only once.

The subject of data set [1] is Botrytis cinerea. The data set is described as follows: in vitro-Test with fungal microorganisms, Method B (tables B15-B18). It counts as cell-based. The method, boiled down: (§1)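 Efficacy, relative to untreated control (0% = growth as in control, 100% = no growth), from photometric growth measurement at 600 nm after 3 to 7 days at 20° C., 85% relative humidity. Compound applied in methanol+emulsifier, solvent evaporated, then spore/mycelium-amended liquid medium added.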

For data set [2], the system named is Cercospora beticola. The experiment in a line: in vitro-Test with fungal microorganisms, Method A (tables C1-C10). The format is cell-based. The method, boiled down:
(§2)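 Readout: extinction at 620 nm, measured at start and again 3-5 days later, giving efficacy versus untreated control (0% = control growth, 100% = no growth). Compounds were evaporated from methanol/emulsifier before adding potato dextrose medium with fungal spores or mycelium; incubation 20° C, 85% RH.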

Another data set relates to Cordana musae. The data set is described as follows: in vitro-Test with fungal microorganisms, Method A (tables E1-E8). It counts as cell-based. Particulars: single substance. The method in brief: as §2
Data set [3] has as its system Diaporthe citri. The experiment in a line: in vitro-Test with fungal microorganisms, Method B (tables F12-F15). Particulars: Table F14. It counts as cell-based. The method in brief: as §1
The test system of data set [4] is Diaporthe citri. The experiment in a line: in vitro-Test with fungal microorganisms, Method A (tables F1-F11). The format is cell-based. The method in brief: as §2
In data set [5] the test system is Fusarium culmorum. The experiment in a line: in vitro-Test with fungal microorganisms, Method A (tables G1-G4). It counts as cell-based. The conditions noted are these: Table G1. The method, boiled down: as §2
For data set [6], the system named is Cercospora beticola. The data set is described as follows: in vitro-Test with fungal microorganisms, Method B (tables C11-C20). It counts as cell-based. The method, boiled down:
as §1

The test system of the next data set is Alternaria alternate. The experiment in a line: in vitro-Test with fungal microorganisms, Method A (tables A1-A12). It counts as cell-based, Alternaria alternata. The conditions noted are these: applied alone. The method in brief:
as §2

Data set [7] deals with Botrytis cinerea. The data set is described as follows: in vitro-Test with fungal microorganisms, Method A (tables B1-B14). It counts as cell-based. Particulars: for Efficacy %: alone. The method, boiled down:
as §2

The test system of data set [8] is Parastagonospora nodorum. The experiment in a line: in vitro-Test with fungal microorganisms, Method A (tables H1-H4). The format is cell-based. The method, boiled down:
as §2

Data set [9] deals with Parastagonospora nodorum. The experiment in a line: in vitro-Test with fungal microorganisms, Method B (tables H5-H8). The format is cell-based. The method, boiled down: as §1
The test system of a further data set is Alternaria alternata. The experiment in a line: in vitro-Test with fungal microorganisms, Method B (tables A13-A22). It counts as cell-based. The method in brief: as §1
Data set [10] has as its system Ustilago segetum var. avenae. The data set is described as follows: in vitro-Test with fungal microorganisms, Method B (tables I6-I11). The format is cell-based. The method in brief:
as §1

For another data set, the system named is Colletotrichum coccodes. The data set is described as follows: in vitro-Test with fungal microorganisms, Method B (tables J1-J11). It counts as cell-based. The method, boiled down: as §1
The test system of data set [11] is Fusarium culmorum. The data set is described as follows: in vitro-Test with fungal microorganisms, Method B (tables G5-G15). The conditions noted are these: single active compound. The format is cell-based. The method in brief: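 Steps: solvent evaporation leaves the compound coating the wells; fungus-inoculated liquid growth medium goes on top; absorbance at 600 nm is measured; incubation runs 3 to 7 days at 20° C. with 85% relative humidity. Inhibition is then read photometrically and expressed as efficacy against untreated control.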

For data set [12], the system named is Ustilago segetum var. avenae. The experiment in a line: in vitro-Test with fungal microorganisms, Method A (tables I1-I5). The format is cell-based. The conditions noted are these: alone. The method, boiled down: as §2
For data set [13], the system named is Colletotrichum lindemuthianum. The data set is described as follows: in vitro-Test with fungal microorganisms, Method A (tables D1-D8). It counts as cell-based. The method in brief:
as §2

Data set [14] is described as follows: Log P by HPLC on reversed phase columns (LC-UV), method [a]: acidic range, 0.1% formic acid in water / acetonitrile. It counts as physicochemical.
Method: Measurement of Log P Values
Measurement of Log P values as provided herein was performed according to EEC directive 79/831 Annex V.A8 by HPLC (High Performance Liquid Chromatography) on reversed phase columns with the following methods: • ^[a]
If more than one Log P value is available within the same method, all the values are given and separated by “+”.
Setting [15] is: method [a], acidic range (0.1% formic acid), Table 17, compounds of formula (10).

In the case of `CC(O)(Cn1cncn1)c1ccc(Oc2ccc(Cl)cc2)cc1C(F)(F)F` (stereo not drawn) [(1.055) mefentrifluconazole, mefentrifluconazole], the Efficacy % was 0% with Botrytis cinerea [1] (0.008 ppm alone); 0% with Botrytis cinerea [1] (0.04 ppm alone); 30% in the data set with Botrytis cinerea [1] (0.2 ppm alone); 12% in the data set on Cercospora beticola [2] (0.008 ppm); 60% and 80% in the data set on Cercospora beticola [2] (0.008 ppm alone); 100% with Cercospora beticola [2] (0.04 ppm). The Efficacy % with Cercospora beticola [2] (0.04 ppm alone) was 100% and 91%; in the data set with Cercospora beticola [2] (0.2 ppm), 100%; in the data set with Cercospora beticola [2] (0.2 ppm alone), 100%; in the data set with Cercospora beticola [2] (1.0 ppm), 100%; with Cercospora beticola [2] (1.0 ppm alone) it was 100%; in the data set with Cordana musae (0.008 ppm), 4%. For the same compound, the Efficacy % stood at 29% in the data set with Cordana musae (0.04 ppm); 100% in the data set with Cordana musae (0.2 ppm); 100% in the data set on Cordana musae (1.0 ppm); 24% with Cercospora beticola [6] (0.008 ppm); 84% in the data set on Cercospora beticola [6] (0.04 ppm); 14% in the data set with Cercospora beticola [6] (single compound, 0.008 ppm). The Efficacy % in the data set with Cercospora beticola [6] (single compound, 0.04 ppm) was 93%; in the data set on Alternaria alternate (0.008 ppm), 9%; with Alternaria alternate (0.04 ppm) it was 58% and 32%; in the data set on Alternaria alternate (0.2 ppm) it was 96% and 100%; in the data set on Alternaria alternate (1.0 ppm), 100% and 99%; with Botrytis cinerea [7] (0.008 ppm) it was 0%. The Efficacy % in the data set with Botrytis cinerea [7] (0.04 ppm) worked out at 0%; in the data set on Botrytis cinerea [7] (0.2 ppm), 53%; in the data set with Botrytis cinerea [7] (1.0 ppm) it was 100%; in [10] (0.008 ppm), 4%; in [10] (0.04 ppm), 3%; in [10] (0.2 ppm) it was 41%. The Efficacy % amounted to 100% in data set [10] (1 ppm); 53% in data set [10] (alone, 0.2 ppm); 100% in data set [10] (alone, 1 ppm); 0% in the data set on Colletotrichum coccodes (0.008 ppm); 34% in the data set on Colletotrichum coccodes (0.2 ppm); 100% in the data set with Colletotrichum coccodes (1 ppm). For the same compound, the Efficacy % with Colletotrichum coccodes (single active compound at 0.2 ppm) is recorded as 22%; in data set [12] (0.008 ppm) it was 0%; in data set [12] (0.04 ppm), 4%; in data set [12] (0.2 ppm) it was 100%; in data set [12] (1.0 ppm), 100%; in data set [13] (mixing partner alone, 0.008 ppm), 0%. Also, the Efficacy % is 0% in [13] (mixing partner alone, 0.04 ppm); 6% in data set [13] (mixing partner alone, 0.2 ppm); 13% in [13] (mixing partner alone, 1.0 ppm); 7% and 0% in data set [13] (single active at 0.008 ppm); 0% and 3% in [13] (single active at 0.04 ppm); 11% in [13] (single active at 0.2 ppm). Moreover, the Efficacy % in data set [13] (single active at 1.0 ppm) stood at 0%. Also, the Efficacy was 8% in the data set with Diaporthe citri [3] (0.008 ppm alone); 21% with Diaporthe citri [3] (0.04 ppm alone); 94% in the data set with Diaporthe citri [3] (0.2 ppm alone); 99% in the data set on Diaporthe citri [3] (1 ppm alone); 0% in the data set on Diaporthe citri [4] (applied alone, 0.008 ppm); 60% and 38% with Diaporthe citri [4] (applied alone, 0.04 ppm). The Efficacy in the data set on Diaporthe citri [4] (applied alone, 0.2 ppm) came out at 100%; in the data set with Diaporthe citri [4] (applied alone, 1.0 ppm) it was 100%; in the data set on Diaporthe citri [4] (single active, 0.008 ppm) it was 17%; in the data set with Diaporthe citri [4] (single active, 0.04 ppm), 69%; in the data set with Diaporthe citri [4] (single active, 0.2 ppm), 99%; in the data set on Diaporthe citri [4] (single active, 1.0 ppm), 100%. Also, the Efficacy is on record as 20% with Fusarium culmorum [5] (0.008 ppm alone); 22% in the data set on Fusarium culmorum [5] (0.04 ppm alone); 5% in the data set with Fusarium culmorum [5] (0.2 ppm alone); 33% in the data set on Fusarium culmorum [5] (1.0 ppm alone); 0% in the data set on Botrytis cinerea [7] (0.008 ppm); 37% with Botrytis cinerea [7] (0.04 ppm). Further, the Efficacy with Botrytis cinerea [7] (0.2 ppm) is on record as 78%; with Parastagonospora nodorum [8] (0.008 ppm) it was 89%; in the data set with Parastagonospora nodorum [8] (0.04 ppm), 99%; in the data set on Parastagonospora nodorum [8] (0.2 ppm), 99%; in the data set with Parastagonospora nodorum [8] (1.0 ppm), 100%; in the data set with Parastagonospora nodorum [8] (single active compound, 0.008 ppm), 90%. Also, the Efficacy with Parastagonospora nodorum [8] (single active compound, 0.04 ppm) is listed as 97%; with Parastagonospora nodorum [8] (single active compound, 0.2 ppm), 100%; in the data set on Parastagonospora nodorum [8] (single active compound, 1.0 ppm) it was 100%; with Parastagonospora nodorum [9] (0.008 ppm) it was 84%; in the data set with Parastagonospora nodorum [9] (0.04 ppm), 99%; with Alternaria alternata (0.008 ppm), 9%. Besides, the Efficacy in the data set with Alternaria alternata (0.04 ppm) was 19%; with Alternaria alternata (0.2 ppm), 91%; in the data set with Alternaria alternata (single compound, 0.2 ppm), 65%; in the data set with Alternaria alternata (single compound, 1 ppm) it was 99%; in the data set with Fusarium culmorum [11] (0.008 ppm), 11% and 3%; with Fusarium culmorum [11] (0.04 ppm), 16% and 24%. Besides, the Efficacy in the data set on Fusarium culmorum [11] (1 ppm) was 24% and 33%.

In the case of `CON(C)C(=O)c1cc(Cl)nnc1Oc1cccc(C(F)(F)F)c1` [Compound 1-07], the LogP in data set [14] (method [a], acidic range (0.1% formic acid), Table 3, compounds of formula (1)) is 2.90^[a].

As for `Cc1cc(C(=O)NC(CON2C(=O)c3ccccc3C2=O)Cc2ccc(C)c(C)c2)c(Oc2cccc(Cl)c2F)nn1` (stereo not drawn) [Compound 3-45], the LogP in data set [14] (method [a], acidic range (0.1% formic acid), Table 7, compounds of formula (3)) was 4.42^[a].

For the compound `COc1cccc(Oc2nnc(Cl)cc2C#N)c1` [Compound 9-08], the chromatographic logP in [14] (method [a], acidic range (0.1% formic acid), Table 15, compounds of formula (9)) worked out at 2.75.

As to `N/C(=N\O)c1cc(Cl)nnc1Oc1cccc(Cl)c1` [Compound 10-04], the chromatographic logP in [14] (setting [15]) came out at 2.

Compound `N/C(=N\O)c1cc(Cl)nnc1Oc1cccc(Br)c1F` [Compound 10-05] registered a chromatographic logP in data set [14] (setting [15]) of 2.21.

As to `N/C(=N\O)c1cc(Cl)nnc1Oc1cccc(C2CC2)c1F` [Compound 10-07], the chromatographic logP in data set [14] (setting [15]) worked out at 2.34.

`N/C(=N\O)c1cc(Cl)nnc1Oc1cccc(C2CC2)c1` [Compound 10-08] returned a chromatographic logP in data set [14] (setting [15]) of 2.19.

As for `N/C(=N\O)c1cc(Cl)nnc1Oc1cccc(C(F)F)c1F` [Compound 10-09], the chromatographic logP in [14] (setting [15]) was found to be 1.91.

As for `Cc1ccc(CC(CCl)NC(=NO)c2cc(Cl)nnc2Oc2cccc(C(F)(F)F)c2)c(C)c1` (stereo not drawn) [Compound 20-08], the LogP in [14] (method [a]) was 2.77^[a].

As to `FC(F)(F)c1cccc(Oc2nnc(Cl)cc2C2=NOC[C@H](Cc3ccccc3)N2)c1` [Compound I-070, (5S)-5-benzyl-3-[6-chloro-3-[3-(trifluoro-methyl)phenoxy]pyridazin-4-yl]-5,6-dihydro-4H-1,2,4-oxadiazine], in data set [14] (method [a]: HPLC, acidic range, 0.1% formic acid in water / acetonitrile), the LogP is 3.81^[a].
